Experimental data: ChEMBL document CHEMBL1201862, “PubChem BioAssay data set” (2004)
Active and inactive are the calls of the source.

Columns and labels:
[1] = molecular target: T1, Mannose-6-phosphate isomerase (Homo sapiens, UniProt P34949); test: MPI inhibition at elevated mannose 6-phosphate – biochemical, fluorescence intensity, high mannose 6-phosphate, primary screen (AID 1220)
T1 sequence (P34949 whole entry): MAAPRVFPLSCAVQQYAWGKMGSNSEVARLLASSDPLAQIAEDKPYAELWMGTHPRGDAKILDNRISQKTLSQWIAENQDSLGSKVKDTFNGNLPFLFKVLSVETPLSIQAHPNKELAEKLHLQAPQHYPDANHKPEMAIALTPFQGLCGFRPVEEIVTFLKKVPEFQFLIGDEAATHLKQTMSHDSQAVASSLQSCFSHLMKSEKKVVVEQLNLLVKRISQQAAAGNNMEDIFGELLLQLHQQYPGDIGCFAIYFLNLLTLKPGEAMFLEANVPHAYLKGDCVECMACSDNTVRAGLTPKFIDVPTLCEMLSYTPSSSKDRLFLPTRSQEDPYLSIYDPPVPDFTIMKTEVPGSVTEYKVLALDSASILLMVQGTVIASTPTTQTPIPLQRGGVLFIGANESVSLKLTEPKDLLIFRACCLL

[2] = viability of PTEN-deleted HCT116 cells – cell-based, HCT116 PTEN knockout, dose response (AID 1047); assay type: functional;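 also: HCT116 colon tumor cells with PTEN knocked out; cells exposed to compound for 60 hours before readout; potency for loss of cell viability measured by luminescence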
[3] = molecular target: T2, Apoptotic protease-activating factor 1 (Homo sapiens, UniProt O14727); assay type: functional
T2 sequence (O14727 whole entry): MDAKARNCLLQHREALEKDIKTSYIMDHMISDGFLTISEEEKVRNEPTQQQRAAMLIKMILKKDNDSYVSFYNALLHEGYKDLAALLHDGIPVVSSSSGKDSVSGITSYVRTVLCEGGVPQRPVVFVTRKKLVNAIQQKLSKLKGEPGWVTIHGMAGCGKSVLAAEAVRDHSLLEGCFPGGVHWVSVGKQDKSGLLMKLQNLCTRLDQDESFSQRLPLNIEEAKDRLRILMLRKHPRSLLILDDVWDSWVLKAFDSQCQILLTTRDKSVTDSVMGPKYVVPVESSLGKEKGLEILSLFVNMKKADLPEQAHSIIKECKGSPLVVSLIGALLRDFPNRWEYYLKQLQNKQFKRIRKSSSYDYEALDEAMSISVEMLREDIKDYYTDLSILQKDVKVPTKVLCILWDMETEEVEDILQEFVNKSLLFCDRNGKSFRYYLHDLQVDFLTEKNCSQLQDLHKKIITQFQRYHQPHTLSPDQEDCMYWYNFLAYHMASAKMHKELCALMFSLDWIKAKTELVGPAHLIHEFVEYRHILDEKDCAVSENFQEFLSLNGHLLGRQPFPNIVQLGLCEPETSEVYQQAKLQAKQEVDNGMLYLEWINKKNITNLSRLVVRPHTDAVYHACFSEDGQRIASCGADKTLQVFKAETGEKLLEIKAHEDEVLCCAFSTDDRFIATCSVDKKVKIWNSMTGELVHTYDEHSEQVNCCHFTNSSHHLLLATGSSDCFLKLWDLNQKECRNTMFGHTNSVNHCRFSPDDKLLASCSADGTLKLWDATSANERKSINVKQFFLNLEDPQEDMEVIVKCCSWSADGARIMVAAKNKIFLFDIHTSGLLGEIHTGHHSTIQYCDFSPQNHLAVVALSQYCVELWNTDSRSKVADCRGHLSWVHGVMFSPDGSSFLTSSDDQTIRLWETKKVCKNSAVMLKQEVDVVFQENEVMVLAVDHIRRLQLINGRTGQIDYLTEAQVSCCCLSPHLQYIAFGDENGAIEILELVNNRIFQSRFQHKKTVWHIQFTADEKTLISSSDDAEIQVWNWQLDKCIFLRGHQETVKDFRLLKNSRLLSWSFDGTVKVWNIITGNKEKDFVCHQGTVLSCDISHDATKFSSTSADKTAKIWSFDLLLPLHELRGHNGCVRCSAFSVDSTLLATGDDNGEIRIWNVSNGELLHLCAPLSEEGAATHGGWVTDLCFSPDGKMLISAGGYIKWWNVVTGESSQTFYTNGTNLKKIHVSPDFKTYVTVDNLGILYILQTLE

[4] = molecular target: Receptor tyrosine-protein kinase erbB-4 (Homo sapiens, UniProt Q15303); assay type: functional;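 also: ERBB4 member of a kinome-wide kinase profiling panel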
[5] = molecular target: Hepatocyte growth factor receptor (Homo sapiens, UniProt P08581); assay type: functional;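 also: kinase panel profiling across the kinome, with MET as the panel member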
[6] = molecular target: Inhibitor of nuclear factor kappa-B kinase subunit alpha (Homo sapiens, UniProt O15111); assay type: functional
[7] = molecular target: Tyrosine-protein kinase Lck (Homo sapiens, UniProt P06239); assay type: functional;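 also: lck was assayed as one member of a kinase panel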
[8] = molecular target: Mitogen-activated protein kinase 8 (Homo sapiens, UniProt P45983); assay type: functional;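 also: value comes from one member of a kinome-wide kinase profiling panel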
[9] = molecular target: Receptor-type tyrosine-protein kinase FLT3 (Homo sapiens, UniProt P36888); assay type: functional;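 also: FLT3 was tested as one member of a kinome-wide kinase panel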
[10] = molecular target: Tyrosine-protein kinase JAK3 (Homo sapiens, UniProt P52333); assay type: functional
[11] = molecular target: Rho-associated protein kinase 1 (Homo sapiens, UniProt Q13464); assay type: functional;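 also: measured within a broad kinome-wide panel profiling many kinases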
[12] = molecular target: Serine/threonine-protein kinase PAK 4 (Homo sapiens, UniProt O96013); assay type: functional;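 also: value obtained within a kinome profiling panel in which PAK4 was one of the panel members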
[13] = molecular target: Mitogen-activated protein kinase 9 (Homo sapiens, UniProt P45984); assay type: functional;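 also: value from a kinome panel profiling assay, MAPK9 panel entry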
[14] = molecular target: Tyrosine-protein kinase Lyn (Homo sapiens, UniProt P07948); assay type: functional;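 also: lyn as one member of a kinase panel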
[15] = molecular target: Non-receptor tyrosine-protein kinase TYK2 (Homo sapiens, UniProt P29597); assay type: functional
[16] = reduced cellular PGC1a acetyl-lysine signal – cell-based, cherry-picked samples, dose response (AID 720514); assay type: functional;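 also: potency may reflect raised or lowered acetylation signal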
[17] = DRD fibroblast viability loss – cell-based, non-viral oncogenic, luminescence, dose response (AID 1934); assay type: functional; settings: Homo sapiens
BJ [18] = test: BJ-TERT-LT-ST fibroblast viability loss – cell-based, RAS-independent, luminescence, dose response (AID 1935); assay type: functional; settings: Homo sapiens;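 also: BJ fibroblasts immortalized with TERT plus LT and ST oncogenes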
BJ [19] = test: growth inhibition of engineered Ras-driven BJ cells – cell-based, alamar blue fluorescence, cherrypicked samples, dose response (AID 2631); assay type: functional; settings: Homo sapiens;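 also: confirmatory dose-response assay in RAS-dependent BJ fibroblasts engineered with TERT, LT and ST, with cytotoxicity read by fluorescence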
Bcl-2-related protein A1 = molecular target: T3, Bcl-2-related protein A1 (Mus musculus, UniProt Q07440); assay type: functional;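 also: confirmatory dose–response counterscreen on Bfl-1, used to check hits from a UBC13 polyubiquitin inhibitor campaign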
T3 sequence (Q07440 whole entry): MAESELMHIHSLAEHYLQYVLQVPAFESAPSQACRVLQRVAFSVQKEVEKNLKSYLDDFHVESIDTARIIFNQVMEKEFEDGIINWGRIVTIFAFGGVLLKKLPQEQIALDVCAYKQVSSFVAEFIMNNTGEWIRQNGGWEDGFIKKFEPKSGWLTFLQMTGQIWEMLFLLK

HEK293 = test: membrane integrity loss in HEK cells – cell-based, fluorescence, cytotoxicity control for IDE activator project, dose response (AID 588440); assay type: functional; settings: Homo sapiens;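 also: cytotoxicity by LDH release measuring loss of membrane integrity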

Sequence of Rho-associated protein kinase 1 (Q13464 whole entry): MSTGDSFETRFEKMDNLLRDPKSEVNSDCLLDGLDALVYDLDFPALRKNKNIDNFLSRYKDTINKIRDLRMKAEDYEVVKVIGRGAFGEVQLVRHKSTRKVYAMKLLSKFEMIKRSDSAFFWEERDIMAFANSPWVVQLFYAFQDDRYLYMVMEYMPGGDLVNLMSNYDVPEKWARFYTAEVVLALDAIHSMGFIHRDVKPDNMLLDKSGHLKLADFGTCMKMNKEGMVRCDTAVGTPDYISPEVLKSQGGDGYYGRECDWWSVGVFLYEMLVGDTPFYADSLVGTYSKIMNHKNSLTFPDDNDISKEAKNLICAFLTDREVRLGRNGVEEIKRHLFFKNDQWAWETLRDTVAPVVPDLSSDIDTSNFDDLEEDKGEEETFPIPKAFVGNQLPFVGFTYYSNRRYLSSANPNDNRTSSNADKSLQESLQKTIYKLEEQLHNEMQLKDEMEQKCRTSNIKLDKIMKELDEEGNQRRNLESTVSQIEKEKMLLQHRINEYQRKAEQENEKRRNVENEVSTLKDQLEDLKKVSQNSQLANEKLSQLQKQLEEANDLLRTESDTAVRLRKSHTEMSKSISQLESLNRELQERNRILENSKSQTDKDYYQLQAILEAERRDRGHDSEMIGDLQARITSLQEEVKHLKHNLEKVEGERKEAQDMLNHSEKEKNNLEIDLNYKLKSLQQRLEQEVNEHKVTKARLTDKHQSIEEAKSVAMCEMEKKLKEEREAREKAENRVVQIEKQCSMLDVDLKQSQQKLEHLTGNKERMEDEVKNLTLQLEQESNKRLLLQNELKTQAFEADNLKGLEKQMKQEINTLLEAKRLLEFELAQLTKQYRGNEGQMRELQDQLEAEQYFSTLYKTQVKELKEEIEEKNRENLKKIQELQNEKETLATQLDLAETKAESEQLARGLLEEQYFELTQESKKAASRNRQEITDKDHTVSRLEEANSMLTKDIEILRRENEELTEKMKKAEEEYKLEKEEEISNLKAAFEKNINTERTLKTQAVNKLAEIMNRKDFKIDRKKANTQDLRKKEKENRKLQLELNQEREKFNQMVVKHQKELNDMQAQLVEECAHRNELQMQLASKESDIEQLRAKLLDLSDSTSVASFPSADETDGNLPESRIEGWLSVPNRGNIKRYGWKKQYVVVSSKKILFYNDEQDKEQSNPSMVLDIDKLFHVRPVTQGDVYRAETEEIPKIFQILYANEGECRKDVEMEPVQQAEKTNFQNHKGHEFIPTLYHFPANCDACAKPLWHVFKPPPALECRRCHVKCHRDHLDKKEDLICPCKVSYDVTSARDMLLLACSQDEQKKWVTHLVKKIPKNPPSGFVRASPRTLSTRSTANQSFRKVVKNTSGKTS
Sequence of Receptor-type tyrosine-protein kinase FLT3 (P36888 whole entry): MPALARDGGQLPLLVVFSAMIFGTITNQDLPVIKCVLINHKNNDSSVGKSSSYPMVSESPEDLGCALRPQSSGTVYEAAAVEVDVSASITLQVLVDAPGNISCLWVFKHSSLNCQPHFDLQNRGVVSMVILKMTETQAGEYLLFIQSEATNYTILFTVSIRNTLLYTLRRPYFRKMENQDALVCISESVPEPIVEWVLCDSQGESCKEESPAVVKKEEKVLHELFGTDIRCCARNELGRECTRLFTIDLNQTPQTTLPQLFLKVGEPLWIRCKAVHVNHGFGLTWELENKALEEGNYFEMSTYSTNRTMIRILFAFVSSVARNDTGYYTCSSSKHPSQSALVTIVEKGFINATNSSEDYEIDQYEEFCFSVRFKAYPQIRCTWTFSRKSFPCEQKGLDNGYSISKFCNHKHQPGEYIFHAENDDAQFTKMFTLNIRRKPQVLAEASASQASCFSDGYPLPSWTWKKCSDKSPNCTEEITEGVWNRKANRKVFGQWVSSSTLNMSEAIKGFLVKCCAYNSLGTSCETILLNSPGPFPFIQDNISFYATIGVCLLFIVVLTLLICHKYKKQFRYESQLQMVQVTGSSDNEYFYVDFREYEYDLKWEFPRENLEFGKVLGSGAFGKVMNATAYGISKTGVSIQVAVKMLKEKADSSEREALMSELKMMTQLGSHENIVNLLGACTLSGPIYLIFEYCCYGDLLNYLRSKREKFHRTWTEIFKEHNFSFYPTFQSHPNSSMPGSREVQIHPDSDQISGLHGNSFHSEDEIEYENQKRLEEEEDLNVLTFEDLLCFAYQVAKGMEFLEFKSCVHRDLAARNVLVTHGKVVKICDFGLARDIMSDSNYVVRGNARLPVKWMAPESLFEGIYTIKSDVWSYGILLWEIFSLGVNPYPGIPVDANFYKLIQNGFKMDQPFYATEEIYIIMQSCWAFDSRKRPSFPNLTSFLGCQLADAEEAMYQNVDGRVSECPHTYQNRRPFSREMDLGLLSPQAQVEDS
Sequence of Mitogen-activated protein kinase 8 (P45983 whole entry): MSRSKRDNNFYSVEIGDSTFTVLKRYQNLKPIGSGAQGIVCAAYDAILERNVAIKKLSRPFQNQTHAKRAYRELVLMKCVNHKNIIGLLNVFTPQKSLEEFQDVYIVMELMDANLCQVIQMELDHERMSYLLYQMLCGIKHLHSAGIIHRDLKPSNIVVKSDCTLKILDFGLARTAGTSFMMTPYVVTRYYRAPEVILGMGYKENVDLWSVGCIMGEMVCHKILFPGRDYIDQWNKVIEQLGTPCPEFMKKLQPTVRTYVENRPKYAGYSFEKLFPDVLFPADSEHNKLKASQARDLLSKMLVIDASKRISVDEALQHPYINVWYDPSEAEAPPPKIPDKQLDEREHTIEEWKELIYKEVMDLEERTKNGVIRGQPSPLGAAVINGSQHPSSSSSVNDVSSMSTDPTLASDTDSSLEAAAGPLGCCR
Sequence of Serine/threonine-protein kinase PAK 4 (O96013 whole entry): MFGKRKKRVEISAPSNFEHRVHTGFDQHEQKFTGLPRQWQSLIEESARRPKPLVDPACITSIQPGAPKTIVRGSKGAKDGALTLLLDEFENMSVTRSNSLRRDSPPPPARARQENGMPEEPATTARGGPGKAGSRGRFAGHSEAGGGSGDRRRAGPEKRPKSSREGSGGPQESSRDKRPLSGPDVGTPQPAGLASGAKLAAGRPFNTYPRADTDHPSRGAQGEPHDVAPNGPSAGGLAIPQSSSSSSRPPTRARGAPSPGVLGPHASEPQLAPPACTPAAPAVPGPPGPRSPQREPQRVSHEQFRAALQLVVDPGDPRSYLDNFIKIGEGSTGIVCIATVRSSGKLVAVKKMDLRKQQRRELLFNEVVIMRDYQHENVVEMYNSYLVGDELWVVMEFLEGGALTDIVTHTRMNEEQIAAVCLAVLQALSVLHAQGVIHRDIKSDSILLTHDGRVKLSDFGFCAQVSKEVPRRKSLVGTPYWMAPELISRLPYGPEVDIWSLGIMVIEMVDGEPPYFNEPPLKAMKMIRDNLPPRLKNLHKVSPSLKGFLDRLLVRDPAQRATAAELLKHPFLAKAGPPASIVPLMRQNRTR
Sequence of Tyrosine-protein kinase Lck (P06239 whole entry): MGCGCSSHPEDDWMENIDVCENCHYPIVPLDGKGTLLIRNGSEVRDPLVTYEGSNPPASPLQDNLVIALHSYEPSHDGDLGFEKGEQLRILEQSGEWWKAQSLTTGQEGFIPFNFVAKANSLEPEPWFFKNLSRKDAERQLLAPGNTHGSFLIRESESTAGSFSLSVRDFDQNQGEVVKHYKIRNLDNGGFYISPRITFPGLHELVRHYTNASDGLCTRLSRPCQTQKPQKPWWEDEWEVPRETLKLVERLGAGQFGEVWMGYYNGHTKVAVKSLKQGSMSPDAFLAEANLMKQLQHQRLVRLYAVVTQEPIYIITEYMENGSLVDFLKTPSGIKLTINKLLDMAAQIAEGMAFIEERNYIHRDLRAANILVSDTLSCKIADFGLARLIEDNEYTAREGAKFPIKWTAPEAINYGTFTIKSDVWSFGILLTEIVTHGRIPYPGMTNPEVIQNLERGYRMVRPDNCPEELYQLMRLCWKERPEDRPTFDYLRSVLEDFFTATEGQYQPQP
Sequence of Tyrosine-protein kinase JAK3 (P52333 whole entry): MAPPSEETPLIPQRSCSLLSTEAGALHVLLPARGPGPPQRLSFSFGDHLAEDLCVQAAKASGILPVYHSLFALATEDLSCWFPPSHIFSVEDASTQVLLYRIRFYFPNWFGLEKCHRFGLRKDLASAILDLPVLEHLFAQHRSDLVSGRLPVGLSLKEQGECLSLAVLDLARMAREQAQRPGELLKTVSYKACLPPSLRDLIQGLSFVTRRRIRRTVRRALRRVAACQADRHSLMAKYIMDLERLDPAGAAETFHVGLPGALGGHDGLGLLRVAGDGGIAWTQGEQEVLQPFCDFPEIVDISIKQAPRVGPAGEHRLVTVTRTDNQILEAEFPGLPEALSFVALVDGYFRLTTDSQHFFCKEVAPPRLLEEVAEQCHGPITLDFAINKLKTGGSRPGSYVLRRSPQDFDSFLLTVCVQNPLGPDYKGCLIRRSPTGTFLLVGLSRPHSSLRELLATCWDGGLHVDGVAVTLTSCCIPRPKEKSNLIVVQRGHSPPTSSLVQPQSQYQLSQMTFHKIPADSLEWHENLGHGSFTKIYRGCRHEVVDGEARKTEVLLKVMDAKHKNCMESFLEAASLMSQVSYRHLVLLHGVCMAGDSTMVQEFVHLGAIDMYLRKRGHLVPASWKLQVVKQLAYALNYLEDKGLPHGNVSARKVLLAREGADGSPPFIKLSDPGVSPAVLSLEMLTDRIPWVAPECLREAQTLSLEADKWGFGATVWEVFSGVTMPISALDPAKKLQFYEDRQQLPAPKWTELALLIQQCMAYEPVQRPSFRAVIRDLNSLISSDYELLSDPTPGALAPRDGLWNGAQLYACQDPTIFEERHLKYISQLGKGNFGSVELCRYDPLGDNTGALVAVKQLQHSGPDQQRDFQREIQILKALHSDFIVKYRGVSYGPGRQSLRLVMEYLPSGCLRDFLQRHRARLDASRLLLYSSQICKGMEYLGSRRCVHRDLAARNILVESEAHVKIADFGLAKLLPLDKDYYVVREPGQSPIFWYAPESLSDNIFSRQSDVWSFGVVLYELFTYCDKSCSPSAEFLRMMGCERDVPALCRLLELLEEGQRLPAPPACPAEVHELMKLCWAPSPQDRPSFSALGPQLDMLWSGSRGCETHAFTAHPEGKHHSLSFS

CCC(C)NC(=O)c1c(N)n(CCCOC)c2nc3ccccc3nc12 (configuration not stated)
IC50 [1]: > 50 µM (not active)
EC50 [2]: 33.2 µM (active)
IC50 [3]: 25.9 µM (active)

CC(=NNC(=N)N)c1cc(NC(=O)NCCCCCCNC(=O)Nc2cc(C(C)=NNC(=N)N)cc(C(C)=NNC(=N)N)c2)cc(C(C)=NNC(=N)N)c1
Ki [4]: > 3.98 µM (inactive)
Ki [5]: 2.51 µM (active)
Ki [6]: 501 nM (active)
Ki [7]: > 2.51 µM (inactive)
Ki [8]: > 3.16 µM (inactive)
Ki [9]: 2 µM (active)
Ki [10]: 1 µM (active)
Ki [11]: 501 nM (active)
Ki [12]: 2.51 µM (active)
Ki [13]: > 3.98 µM (inactive)
Ki [14]: > 1.58 µM (inactive)
Ki [15]: 2 µM (active)

Cc1cc(N)c2cc(NC(=O)/C=C/c3ccccc3Cl)ccc2n1
AC50 [16]: 1.97 µM (active)
EC50 [17]: 2.88 µM (active)
EC50 (BJ [18]): 2.79 µM (inconclusive)
IC50 [3]: 9.95 µM (active)
EC50 (BJ [19]): 704 nM (inconclusive)
IC50 (Bcl-2-related protein A1): 18.2 µM (active)
IC50 (HEK293): 2.63 µM (active)
